# Data: patent publication US6407103B2, “Indeno [1,2-c] pyrazol-4-ones and their uses” (Bristol-Myers Squibb Pharma Company, priority 1998, dated 2002)
# Structures can show the parent of a compound that is named as a salt.
row,SMILES,melting point [°C]
1,"O=C(Nc1cccc2c1C(=O)c1c-2n[nH]c1-c1ccc(N2CCNCC2)cc1)NN1CCC[C@@H]1CO (as salt: TFA) [Example CCXXXIII, 3-(4-piperazinophenyl)-5-((2(R)-(hydroxymethyl)pyrrolidino)carbamoylamino)indeno[1,2-c]pyrazol-4-one]",193
2,"O=C(Nc1cccc2c1C(=O)c1c-2n[nH]c1-c1ccc(N2CCNCC2)cc1)NN1CCC[C@H]1CO (as salt: TFA) [Example CCXXXIV, 3-(4-piperazinophenyl)-5-((2(S)-(hydroxymethyl)pyrrolidino)carbamoylamino)indeno[1,2-c]pyrazol-4-one]",190
3,"O=C(Nc1cccc2c1C(=O)c1c-2n[nH]c1-c1ccc(N2CCNCC2)cc1)NN1CCC[C@@H]1COCc1ccccc1 (as salt: TFA) [Example CCXXXV, 3-(4-piperazinophenyl)-5-((2(R)-(benzyloxymethyl)pyrrolidino)carbamoylamino)indeno[1,2-c]pyrazol-4-one]",207
4,"CC1CN(c2ccc(-c3[nH]nc4c3C(=O)c3c(NC(=O)NN5CCOCC5)cccc3-4)cc2)CCN1 (stereo not drawn) (as salt: TFA) [Example CCXXXVII, 3-(4-(3-methylpiperazino)phenyl)-5-(morpholinocarbamoylamino)indeno[1,2-c]pyrazol-4-one]",230
5,"C[C@@H]1CN(c2ccc(-c3[nH]nc4c3C(=O)c3c(NC(=O)NN5CCOCC5)cccc3-4)cc2)C[C@H](C)N1 (as salt: TFA) [Example CCXXXVIII, 3-(4-(cis-3,5-dimethylpiperazino)phenyl)-5-(morpholinocarbamoylamino)indeno[1,2-c]pyrazol-4-one]",237
6,"CN1CCN(C(=O)c2ccc(-c3[nH]nc4c3C(=O)c3c(NC(=O)NN5CCOCC5)cccc3-4)s2)CC1 (as salt: TFA) [Example CL, 3-(5-(4-methylpiperazinocarbonyl)-2-thienyl)-5-(morpholinocarbamoylamino)indeno[1,2-c]pyrazol-4-one]",186
7,"CCN1CCN(C(=O)c2ccc(-c3[nH]nc4c3C(=O)c3c(NC(=O)NN5CCOCC5)cccc3-4)s2)CC1 (as salt: TFA) [Example CLI, 3-(5-(4-ethylpiperazinocarbonyl)-2-thienyl)-5-(morpholinocarbamoylamino)indeno[1,2-c]pyrazol-4-one]",186
8,"O=C(Nc1cccc2c1C(=O)c1c-2n[nH]c1-c1ccc(C(=O)N2CCN(CCO)CC2)s1)NN1CCOCC1 (as salt: TFA) [Example CLII, 3-(5-(4-(2-hydroxyethyl)piperazinocarbonyl)-2-thienyl)-5-(morpholinocarbamoylamino)indeno[1,2-c]pyrazol-4-one]",186
9,"O=C(Nc1cccc2c1C(=O)c1c-2n[nH]c1-c1ccc(C(=O)N2CCN(CC3CC3)CC2)s1)NN1CCOCC1 (as salt: TFA) [Example CLIII, 3-(5-(4-(cyclopropylmethyl)piperazinocarbonyl)-2-thienyl)-5-(morpholinocarbamoylamino)indeno[1,2-c]pyrazol-4-one]",211
10,"CC(C)(C)OC(=O)N1CCN(C(=O)c2ccc(-c3[nH]nc4c3C(=O)c3c(NC(=O)NN5CCOCC5)cccc3-4)s2)CC1 (as salt: TFA) [Example CLIV, 3-(5-(4-(t-butoxycarbonyl)piperazinocarbonyl)-2-thienyl)-5-(morpholinocarbamoylamino)indeno[1,2-c]pyrazol-4-one]",225
11,"O=C(Nc1cccc2c1C(=O)c1c-2n[nH]c1-c1ccc(C(=O)N2CCC(N3CCCC3)CC2)s1)NN1CCOCC1 (as salt: TFA) [Example CLIX, 3-(5-(4-pyrrolidinopiperidinocarbonyl)-2-thienyl)-5-(morpholinocarbamoylamino)indeno[1,2-c]pyrazol-4-one]",228
12,"O=C(Nc1cccc2c1C(=O)c1c-2n[nH]c1-c1ccc(C(=O)N2CCN(c3ccccn3)CC2)s1)NN1CCOCC1 (as salt: TFA) [Example CLV, 3-(5-(4-(2-pyridyl)piperazinocarbonyl)-2-thienyl)-5-(morpholinocarbamoylamino)indeno[1,2-c]pyrazol-4-one]",202
